Each structure is given as a SMILES string.

Holding throughout (assay type): cell-based, human
Test [1] has as its system Darier keratinocytes (DK). In words: ER stress response (eIF2α and IRE1 phosphorylation, Western-Blot) in Darier keratinocytes. The note with it: for TG-induced eIF2α phosphorylation: DK pre-treated 24 h with PBA 5 mM or Miglustat 500 μM. The protocol: (§1) Cell Culture. Keratinocytes were grown in 0.06 mM CaCl2 EpiLife medium (Invitrogen) to 60-80% confluence and then incubated in 1.2 mM CaCl2 EpiLife medium for 4 hours to induce formation of cell-cell contacts.
(§2) Treatments with drugs. For ER stress induction, keratinocytes grown in high Ca^2+ (1.2 mM) medium were incubated with thapsigargin (TG, Sigma) at 1 μM for different time periods. For inhibition of SERCA pump in NK, keratinocytes were pretreated with 100 nM of TG for 30 min in low Ca^2+ (0.06 mM) medium. Medium was removed, and cells were incubated in high Ca^2+ (1.2 mM) medium for an additional 4 hours to induce the formation of cell-cell contacts.
(§3) Western-Blot. Keratinocytes were lysed in buffer containing 50 mM Tris (pH8), 120 mM NaCl, 0.5% NP-40, Complete™ protease inhibitors cocktail (Roche) and phosphatase inhibitor cocktail 2 (Sigma) for 30 minutes on ice and pelleted by centrifugation. The supernatant was collected for the quantification of protein amount by the Bradford assay. Equal amounts of soluble protein were added to Laemmli buffer (62.5 mM Tris HCl, pH 6.8, 5% ®-mercaptoethanol, 2% SDS, 10% glycerol, and 0.002% bromophenol blue). Samples were separated by SDS-PAGE and transferred onto Hybond-C extra membrane (GE Healthcare). β-actin immunodetection was used as a loading control. Blots were developed by chemiluminescence (ECL Advance, GE Healthcare or SuperSignal West Dura, Pierce).

In test [2] the test system is Darier keratinocytes (DK). The test is described as follows: E-cadherin and SERCA2 expression in chaperone-treated Darier keratinocytes. As to conditions: DK treated with PBA or Miglustat. The protocol:
as §3, with “Treatments with drugs. For ER stress induction, keratinocytes grown in high Ca^2+ (1.2 mM) medium were incubated with thapsigargin (TG, Sigma) at 1 μM for different time periods. For inhibition of SERCA pump in NK, keratinocytes were pretreated with 100 nM of TG for 30 min in low Ca^2+ (0.06 mM) medium. Medium was removed, and cells were incubated in high Ca^2+ (1.2 mM) medium for an additional 4 hours to induce the formation of cell-cell contacts. […] Western-Blot.” for “Western-Blot.”

The test system of test [3] is Darier keratinocytes (DK). In words: Adherens junction formation in chaperone-treated Darier keratinocytes (immunofluorescence). The note with it: for F-actin network organisation / cell shape (polygonal phenotype, characteristic of cell-to-cell adhesion) / staining of AJ components (E-cadherin and catenins) at the plasma membrane: DK pre-treated 24 h with PBA 5 mM or Miglustat 500 μM; for staining of AJ components (E-cadherin and catenins) at the plasma membrane: then 1.2 mM Ca2+. The protocol:
(§4) Cell Culture. Keratinocytes were grown in 0.06 mM CaCl2 EpiLife medium (Invitrogen) to 60-80% confluence and then incubated in 1.2 mM CaCl2 EpiLife medium for 4 hours to induce formation of cell-cell contacts. […] Treatments with drugs. For ER stress induction, keratinocytes grown in high Ca^2+ (1.2 mM) medium were incubated with thapsigargin (TG, Sigma) at 1 μM for different time periods. For inhibition of SERCA pump in NK, keratinocytes were pretreated with 100 nM of TG for 30 min in low Ca^2+ (0.06 mM) medium. Medium was removed, and cells were incubated in high Ca^2+ (1.2 mM) medium for an additional 4 hours to induce the formation of cell-cell contacts. […] Immunofluorescence. Keratinocytes were cultured on coverslips, fixed with 4% paraformaldehyde for 30 minutes at room temperature, and permeabilized with 0.2% TritonX-100 in PBS for 10 minutes. After blocking with 1% fetal bovine serum in PBS, cells were incubated with primary antibodies at 4° C. overnight. Subsequently, cells were incubated with the appropriate Alexa-conjugated secondary antibody at room temperature for 1 hour. For actin staining, cells were incubated with phalloidin-TRITC at room temperature for 1 hour. Lastly, coverslips were mounted on glass slides using Vectashield Hard set (Vector laboratories) and examined using a Zeiss LSM 710 confocal microscope with a 40 Plan-Apochromat objective (1.3 oil) or a 63 Plan-Apochromat objective (1.4 oil), together with a 2× zoom.

Test [4] concerns Darier keratinocytes (DK). The test is described as follows: ER morphology in chaperone-treated Darier keratinocytes (immunofluorescence). As to conditions: DK pre-treated 24 h with PBA 5 mM or Miglustat 500 μM. Here is the method:
as §2
(§5) Immunofluorescence. Keratinocytes were cultured on coverslips, fixed with 4% paraformaldehyde for 30 minutes at room temperature, and permeabilized with 0.2% TritonX-100 in PBS for 10 minutes. After blocking with 1% fetal bovine serum in PBS, cells were incubated with primary antibodies at 4° C. overnight. Subsequently, cells were incubated with the appropriate Alexa-conjugated secondary antibody at room temperature for 1 hour. […]
(§6) Quantification of intracellular compartment volumes and co-localization. For volume quantifications, all Z-series reconstructions were imaged with a pinhole of 1 Airy Unit with an optimal Z-step. […] Each isosurfaced was selected and the volume statistic recorded. Quantification of the co-localization signals was performed using the Metamorph (Molecular Devices) software. In a single optical section, the surface of the red signal (E-cadherin) that merges with a green signal (Calnexin) was calculated.

The subject of test [5] is normal keratinocytes (NK). The test is described as follows: Adherens junction formation in TG-pretreated normal keratinocytes (immunofluorescence). As to conditions: TG-pretreated NK (100 nM, 30 min) cultured in 1.2 mM Ca2+ for 4 hours. The protocol:
as §4, with “Lastly, coverslips were mounted on glass slides using Vectashield Hard set (Vector laboratories) and examined using a Zeiss LSM 710 confocal microscope with a 40 Plan-Apochromat objective (1.3 oil) or a 63 Plan-Apochromat objective (1.4 oil), together with a 2× zoom.” left out

Test [6] relates to Darier keratinocytes (DK). The test is described as follows: XBP1 mRNA splicing (RT-PCR) after TG treatment. The note with it: DK compared to NK, TG 1 μM. Here is the method: as §2
RT-PCR. RNA was isolated from keratinocytes using TRIzol (Invitrogen) and reverse transcribed using hexamer primers and Moloney murine leukemia virus RT. PCR amplification was performed.

The subject of test [7] is normal keratinocytes (NK). The test is described as follows: ER volume and cell spreading in TG-treated normal keratinocytes (immunofluorescence, volume quantification). The note with it: TG-treated NK compared to untreated NK. Here is the method:
as §2, §5, §6

For test [8], the system named is normal keratinocytes (NK). In words: E-cadherin retention in the ER (co-localization with calnexin) in TG-treated normal keratinocytes. The protocol: as §2, §5, §6
In test [9] the test system is normal keratinocytes (NK). The test is described as follows: ER stress response (eIF2α phosphorylation, Western-Blot) in normal keratinocytes. As to conditions: TG 1 μM, high Ca2+ (1.2 mM) medium. Here is the method: as §1, §2
as §3, with “Blots were developed by chemiluminescence (ECL Advance, GE Healthcare or SuperSignal West Dura, Pierce).” left out

For `CCCCN1C[C@H](O)[C@@H](O)[C@H](O)[C@H]1CO` [Miglustat, 1,5-(butylimino)-1,5-dideoxy-D-glucitol], the “TG-induced eIF2α phosphorylation” value in test [1] is listed as “Neither TG-induced eIF2α phosphorylation nor ER expansion were reduced”. Moreover, in test [2], the E-cadherin expression result is on record as “neither PBA nor Miglustat increased” and the SERCA2 expression entry was “neither PBA nor Miglustat increased”. In addition, in [3], the F-actin network organisation entry is “polymerization of the F-actin network”; the “cell shape (polygonal phenotype, characteristic of cell-to-cell adhesion)” value was “all cells present a polygonal phenotype”; the “staining of AJ components (E-cadherin and catenins) at the plasma membrane” value is “a narrow, intense, continuous pericellular staining of all AJ components at the plasma membrane”. In addition, the “plasma membrane localization of E-cadherin” value in test [3] (DK, lower concentration (100 μM)) is “increased plasma membrane localization of E-cadherin only in a limited number of cells”. In addition, the “ER expansion / perinuclear condensation of the ER” value in test [4] is reported as “Neither TG-induced eIF2α phosphorylation nor ER expansion were reduced”.
On to `O=C(O)CCCc1ccccc1` [PBA, 4-phenylbutyric acid], for which the “TG-induced eIF2α phosphorylation” value in [1] was “decreased”. Moreover, in test [2], the E-cadherin expression result is listed as “neither PBA nor Miglustat increased” and the SERCA2 expression entry is listed as “neither PBA nor Miglustat increased”. Moreover, in test [3], the F-actin network organisation entry is “cortical bundles of F-actin parallel and closer to the cell membrane”; the “cell shape (polygonal phenotype, characteristic of cell-to-cell adhesion)” value is recorded as “acquired a pronounced polygonal shape”; the “staining of AJ components (E-cadherin and catenins) at the plasma membrane” value is “a linear, sharp and more intense pericellular staining of E-cadherin and catenins”. Also, the “ER expansion / perinuclear condensation of the ER” value in [4] was “restored perinuclear condensation of the ER”.
`C/C=C(/C)C(=O)O[C@H]1C(C)=C2[C@H]([C@@H]1OC(=O)CCCCCCC)[C@@](C)(OC(C)=O)C[C@H](OC(=O)CCC)[C@@]1(O)[C@H]2OC(=O)[C@@]1(C)O` [TG, thapsigargin]: the “increase of phospho-eIF2α after exposure to thapsigargin” value in test [1] (DK, TG 1 μM, high Ca2+ (1.2 mM) medium) is 2- to 3 fold; in test [9], 1.5 fold. Besides, in test [1] (DK, TG 1 μM, extent higher than in NK), the “IRE1 phosphorylation after exposure to thapsigargin” value is on record as “increased”. In test [5], the “adherens junction (E-cadherin, catenins, F-actin) organisation” value is “AJ abnormalities similar to those in DK”. Besides, the “spliced, active form of XBP1 mRNA after TG treatment” value in [6] is “increased in DK compared to NK”. Besides, in [7], the “number of confluent cells per microscopy field” value is “always smaller”. Further, the ER volume result in test [7] (TG 100 nM 30 min) is listed as “two-fold increase”. Besides, the “E-cadherin intracellular surface overlapping with the calnexin positive compartment” value in test [8] is reported as “significant E-cadherin retention in the ER”.
In the case of `CCCCN1C[C@H](O)[C@@H](O)[C@@H](O)[C@H]1CO` [NB-DGJ], the “effect on E-cadherin localization” value in test [3] (DK, 500 μM, 24 h pre-treatment) is “had not effect”.

The values above are taken from patent US20140350049A1, “METHODS AND PHARMACEUTICAL COMPOSITIONS FOR THE TREATMENT OF DARIER DISEASE” (INSERM (INSTITUT NATIONAL DE LA SANTE ET DE LA RECHERCHE …, priority 2011, published 2014).
